Tests used:
[1] = system: ERK5 autophosphorylation in HeLa cells; assay: EGF-stimulated HeLa cell assay (ERK5 autophosphorylation, Western blot); assay type: cell-based; conditions: Homo sapiens, average where more than one data point
Method: EGF-Stimulated HeLa Cell Assay
HeLa cells were serum starved overnight followed by treatment with ERK5 inhibitors for 1 hr. Cells were then stimulated with 100 ng/ml EGF for 10 or 15 min. The cells were harvested and lysed at 4° C. for 5-10 min in Laemmli buffer containing Halt protease and […] (Pierce). The lysates were boiled for 10 min at 100° C. Twenty microliters sample was run on 6% or 7.5% Tris-glycine gels and transferred to nitrocellulose. […] The IC50 was calculated from densitometry of top bands.

[2] = biological target: T1, ERK5 (Homo sapiens, UniProt Q13164); assay: ERK5 IMAP assay (fluorescence polarisation); assay type: biochemical; conditions: average (e.g. geometric mean) where more than one data point; read-out: ERK5 IC50
T1 construct: made in house
T1 sequence (Q13164 whole entry): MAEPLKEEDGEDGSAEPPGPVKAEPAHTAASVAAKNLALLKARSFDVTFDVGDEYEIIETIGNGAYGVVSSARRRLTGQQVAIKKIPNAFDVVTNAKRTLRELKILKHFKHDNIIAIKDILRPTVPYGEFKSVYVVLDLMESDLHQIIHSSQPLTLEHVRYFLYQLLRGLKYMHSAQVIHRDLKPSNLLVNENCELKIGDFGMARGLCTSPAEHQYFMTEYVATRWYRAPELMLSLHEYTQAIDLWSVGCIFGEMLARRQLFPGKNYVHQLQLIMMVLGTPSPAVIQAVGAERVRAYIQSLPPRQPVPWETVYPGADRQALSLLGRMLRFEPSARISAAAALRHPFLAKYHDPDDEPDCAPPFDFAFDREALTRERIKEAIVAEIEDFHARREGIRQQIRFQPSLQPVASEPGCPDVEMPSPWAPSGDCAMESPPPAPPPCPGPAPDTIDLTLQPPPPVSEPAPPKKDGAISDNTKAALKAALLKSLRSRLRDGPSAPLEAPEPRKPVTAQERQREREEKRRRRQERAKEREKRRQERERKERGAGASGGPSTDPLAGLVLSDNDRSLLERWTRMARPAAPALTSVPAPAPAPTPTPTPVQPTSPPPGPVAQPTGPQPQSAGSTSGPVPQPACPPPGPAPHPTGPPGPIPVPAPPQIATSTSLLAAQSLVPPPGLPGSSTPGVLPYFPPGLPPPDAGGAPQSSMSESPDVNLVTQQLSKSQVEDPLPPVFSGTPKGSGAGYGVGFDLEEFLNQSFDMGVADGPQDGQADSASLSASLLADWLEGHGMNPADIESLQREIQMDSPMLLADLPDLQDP

[3] = system: HA-ERK5-ΔP493 (MEK5D-activated, MEF2D-Gal4/Gal4-Luc reporter) in HEK293T cells; assay: Truncated dual-luciferase reporter assay, HEK293T forward transfection; assay type: cell-based; conditions: Homo sapiens, HEK-293T, average where more than one data point, read-out: Truncated ERK 5 Reporter Assay
Method: Truncated Dual-Luciferase Reporter Assay
HEK293T and HeLa Forward Transfection
Constitutively-active, EGFP-tagged MEK5 (EGFP-MEK5D; 0.5 μg/μl), an EGFP-tagged construct containing no MEK5D (EGFP-C3; 0.5 μg/μl), and HA-tagged ERK5 with C-terminal truncation (HA-ERK5-ΔP493; 0.51 μg/μl) were diluted separately in sterile distilled water. Plasmid DNA and Lipofectamine 2000 (Invitrogen) were separately diluted in Opti-MEM growth media (reduced serum medium, Invitrogen), and incubated at room temperature for 5 min. Plasmid DNA (Tube A) and Lipofectamine 2000 (Tube B) were then combined and incubated for 20 min at room temperature to complex. Cells were then transfected by addition of 16 μl of the respective transfection mixture: 3 wells with EGFP-C3-containing (control) and 21 wells with MEK5D-containing transfection mixture (final volume, 100 μl). Cells were subsequently incubated for 4 h at 37° prior to addition of potential ERK5-inhibitory compounds.
Addition of Compounds to ERK5-Transfected HEK293T or HeLa Cells
Potential ERK5-inhibitory compounds were prepared as a 2× solution by addition of 2 μl compound (or DMSO as control) to 1 ml standard culture medium. Compounds were tested in triplicate at a concentration range of 0.003 μM, 0.01 μM, 0.03 μM, 0.1 μM, 0.3 μM and 1 μM (or 0.03 μM, 0.1 μM, 0.3 μM, 1 μM, 3 μM and 10 μM for BIX02189) by addition of 100 μl 2× solution to 100 μl transfected cells (final DMSO, 0.1% v/v). Cells were incubated for 24 h at 37° C.
Cell Lysis and Luciferase Quantification
After 24 h incubation in the absence (control) or presence of potential inhibitor, the culture medium was aspirated and cells lysed in 20 μl 1× passive lysis buffer (Dual-Luciferase Reporter Assay System, Promega) for a minimum of 15 min with agitation. Lysates were further processed immediately or stored at −80° C. Cellular inhibition of ERK5 was quantified using the Dual-Luciferase Reporter Assay System (Promega). Luciferase assay buffer/Luciferase assay substrate and Stop and Glo assay buffer/Stop and Glo substrate were prepared according to the manufacturer's instructions. Luciferase reagent (50 μl/well) was added immediately before luminescence detection using a FLUOstar Omega plate reader (BMG Labtech). Stop and Glo reagent (50 μl/well) was subsequently added, and the Renilla luciferase signal (transfection efficiency control) quantified.
The ERK5-specific signalling activity was calculated by subtraction of the EGFP-C3 luciferase signal from the EGFP-MEK5D-induced luminescence. Luminescence in the absence of potential ERK5 inhibitor (DMSO control) was taken as 100% ERK5 activity. […] Unless stated otherwise, data are mean±standard deviation of three independent experiments.

[4] = system: ERK5 (HA-ERK5 wt activated by EGFP-MEK5D, MEF2D-Gal4/Gal4-Luc reporter) in HEK293 cells; assay: Dual-luciferase reporter assay (ERK5 reporter), reverse-transfected HEK293 cells; conditions: Homo sapiens, HEK293, read-out: ERK 5 Reporter Assay
Method: Trypsinizing of Adherent Cell Colonies
Cells were regularly passaged in order to maintain optimum colony sizes on plates. In order to do this, and to harvest cells for use in the dual-luciferase reporter assay, adherent cells were lifted from tissue culture dishes. Cell media was removed via aspiration, and the cell monolayer was washed with phosphate buffered saline (PBS) solution (10 mL), which was then aspirated.
Reverse Transfection of HEK293 Cells
Preparation of EGFP Control (C3) Working Solution (for 1×96 Well Plate)
Preparation of HEK293 Cells for Reverse Transfection
Trypsinized HEK293 cells were re-suspended in 19 mL of fresh cell media and counted using haemocytometry. Cells were then diluted with fresh cell media to achieve a final cell concentration of 2×10^5 cells/mL. 1237.5 μL and 7425 μL of this cell media was added to the C3 and 5D working solutions respectively. 100 μL of the transfected cells were then aliquoted into the appropriate wells in a 96-well opaque sided tissue culture plate, and incubated at 37° C. for 6 h.
Addition of Compounds to HEK293 Cells
4 compounds was assayed per 96-well plate. For each compound, 1 mL of growth media was added to eight 1.5 mL Eppendorf® tubes. 6 μL of DMSO was added to two tubes for C3 and blank 5D wells, and 6 μL of the relevant compound stock solution was added to the 6 remaining tubes. […] Solutions of drug in media were thoroughly mixed, and 100 μL of the relevant compound was transferred (in triplicate) to the 96-well plate containing transfected HEK293 cells using an electronic multichannel pipette with variable tip spacing. Sealed plates were incubated at 37° C. for 24 h. Final compound concentrations were as follows; 30 μM, 10 μM, 3 μM, 1 μM and 0.3 μM.
15 mL of 1× passive lysis buffer (PLB) was prepared using 5×PLB (Dual-Luciferase Reporter Assay System, Promega® E1960), diluting with H2O. Assay plates prepared were removed from the incubator and the growth media removed by aspiration.

O=C(Nc1cnc(NC2CCN(C3CC3)CC2)nc1)c1cc(C(=O)c2c(Cl)ccc(Cl)c2F)c[nH]1 [Example 25, N-(2-((1-Cyclopropylpiperidin-4-yl)amino)pyrimidin-5-yl)-4-(3,6-dichloro-2-fluorobenzoyl)-1H-pyrrole-2-carboxamide]
IC50 [1]: 5100 nM | IC50 [2]: 49.7 nM

CN(C)CCNc1ncc(NC(=O)c2cc(C(=O)c3c(Cl)ccc(Cl)c3F)c[nH]2)cn1 [Example 99, 4-(3,6-Dichloro-2-fluorobenzoyl)-N-(2-((2-(dimethylamino)ethyl)amino)pyrimidin-5-yl)-1H-pyrrole-2-carboxamide]
IC50 [3]: 122 nM | IC50 [2]: 15.3 nM

O=C(Nc1cnc(NCCN2CCCC2)nc1)c1cc(C(=O)c2c(Cl)ccc(Cl)c2F)c[nH]1 [Example 102, 4-(3,6-Dichloro-2-fluorobenzoyl)-N-(2-((2-(pyrrolidin-1-yl)ethyl)amino)pyrimidin-5-yl)-1H-pyrrole-2-carboxamide]
IC50 [3]: 85 nM | IC50 [2]: 16.6 nM

O=C(Nc1cnc(NCCN2CCOCC2)nc1)c1cc(C(=O)c2c(Cl)ccc(Cl)c2F)c[nH]1 [Example 103, 4-(3,6-Dichloro-2-fluorobenzoyl)-N-(2-((2-morpholinoethyl)amino)pyrimidin-5-yl)-1H-pyrrole-2-carboxamide]
IC50 [3]: 135 nM | IC50 [2]: 36.8 nM

O=C(Nc1cnc(NCCN2CCCCC2)nc1)c1cc(C(=O)c2c(Cl)ccc(Cl)c2F)c[nH]1 [Example 104, 4-(3,6-Dichloro-2-fluorobenzoyl)-N-(2-((2-(piperidin-1-yl)ethyl)amino)pyrimidin-5-yl)-1H-pyrrole-2-carboxamide]
IC50 [3]: 90 nM | IC50 [2]: 10.4 nM

O=C(Nc1ccc(CN2CCOCC2)nc1)c1cc(C(=O)c2c(Cl)ccc(Cl)c2F)c[nH]1 [Example 115, 4-(3,6-Dichloro-2-fluorobenzoyl)-N-(6-(morpholinomethyl)pyridin-3-yl)-1H-pyrrole-2-carboxamide]
IC50 [3]: 31 nM | IC50 [2]: 26.5 nM

Cc1cccc(F)c1C(=O)c1c[nH]c(C(=O)NC2CCNCC2)c1 [Example 191, 4-(2-Fluoro-6-methylbenzoyl)-N-(piperidin-4-yl)-1H-pyrrole-2-carboxamide]
IC50 [4]: 19500 nM | IC50 [2]: 1400 nM

CN1CCC(NC(=O)c2cc(C(=O)c3c(F)cccc3Cl)c[nH]2)CC1 [Example 192, 4-(2-Chloro-6-fluorobenzoyl)-N-(1-methylpiperidin-4-yl)-1H-pyrrole-2-carboxamide]
IC50 [4]: 3010 nM | IC50 [2]: 199 nM

O=C(NC1CCNCC1)c1cc(C(=O)c2c(F)cccc2Br)c[nH]1 [Example 197, 4-(2-Bromo-6-fluorobenzoyl)-N-(piperidin-4-yl)-1H-pyrrole-2-carboxamide]
IC50 [4]: 22000 nM | IC50 [2]: 386 nM

CN1CCC(NC(=O)c2cc(C(=O)c3c(F)ccc(Cl)c3F)c[nH]2)CC1 [Example 213, 4-(3-Chloro-2,6-difluorobenzoyl)-N-(1-methylpiperidin-4-yl)-1H-pyrrole-2-carboxamide]
IC50 [4]: 3510 nM | IC50 [2]: 156 nM

O=C(Nc1cccnc1)c1cc(C(=O)c2cc(F)ccc2F)c[nH]1 [Example 225, 4-(2,5-Difluorobenzoyl)-N-(pyridin-3-yl)-1H-pyrrole-2-carboxamide]
IC50 [4]: 4770 nM | IC50 [2]: 6030 nM

COc1ccc(Cl)c(C(=O)c2c[nH]c(C(=O)Nc3ccc(CC4CCN(C)CC4)nc3)c2)c1F [Example 236, 4-(6-Chloro-2-fluoro-3-methoxybenzoyl)-N-(6-((1-methylpiperidin-4-yl)methyl)pyridin-3-yl)-1H-pyrrole-2-carboxamide]
IC50 [3]: 96 nM | IC50 [2]: 10.2 nM

COc1ccc(Cl)c(C(=O)c2c[nH]c(C(=O)Nc3cnc(CN4CCN(C)CC4)nc3)c2)c1F [Example 245, 4-(6-Chloro-2-fluoro-3-methoxybenzoyl)-N-(2-((4-methylpiperazin-1-yl)methyl)pyrimidin-5-yl)-1H-pyrrole-2-carboxamide]
IC50 [3]: 461 nM | IC50 [2]: 13 nM

COc1ccc(Cl)c(C(=O)c2c[nH]c(C(=O)Nc3ccc(CN4CCN(C)CC4)nc3)c2)c1F [Example 246, 4-(6-Chloro-2-fluoro-3-methoxybenzoyl)-N-(6-((4-methylpiperazin-1-yl)methyl)pyridin-3-yl)-1H-pyrrole-2-carboxamide]
IC50 [3]: 69 nM | IC50 [2]: 8.5 nM

COc1ccc(Cl)c(C(=O)c2c[nH]c(C(=O)Nc3cnc(CN4CCNCC4)nc3)c2)c1F [Example 250, 4-(6-Chloro-2-fluoro-3-methoxybenzoyl)-N-(2-(piperazin-1-ylmethyl)pyrimidin-5-yl)-1H-pyrrole-2-carboxamide]
IC50 [3]: 573 nM | IC50 [2]: 15.8 nM

COc1ccc(Cl)c(C(=O)c2c[nH]c(C(=O)Nc3cnc(CC4CCNCC4)nc3)c2)c1F [Example 252, 4-(6-Chloro-2-fluoro-3-methoxybenzoyl)-N-(2-(piperidin-4-ylmethyl)pyrimidin-5-yl)-1H-pyrrole-2-carboxamide]
IC50 [3]: 627 nM | IC50 [2]: 12.2 nM

O=C(Nc1cnc(CC2CCNCC2)nc1)c1cc(C(=O)c2c(Cl)ccc(Cl)c2F)c[nH]1 [Example 253, 4-(3,6-Dichloro-2-fluorobenzoyl)-N-(2-(piperidin-4-ylmethyl)pyrimidin-5-yl)-1H-pyrrole-2-carboxamide]
IC50 [3]: 239 nM | IC50 [2]: 7.5 nM

CCN(CC)CCNc1ccc(NC(=O)c2cc(C(=O)c3c(Cl)ccc(Cl)c3F)c[nH]2)cn1 [Example 262, 4-(3,6-Dichloro-2-fluorobenzoyl)-N-(6-((2-(diethylamino)ethyl)amino)pyridin-3-yl)-1H-pyrrole-2-carboxamide]
IC50 [3]: 149 nM | IC50 [2]: 18.5 nM

O=C(Nc1ccc(NCCN2CCCCC2)nc1)c1cc(C(=O)c2c(Cl)ccc(Cl)c2F)c[nH]1 [Example 264, 4-(3,6-Dichloro-2-fluorobenzoyl)-N-(6-((2-(piperidin-1-yl)ethyl)amino)pyridin-3-yl)-1H-pyrrole-2-carboxamide]
IC50 [3]: 142 nM | IC50 [2]: 11.1 nM

O=C(Nc1ccc(NCCN2CCCC2)nc1)c1cc(C(=O)c2c(Cl)ccc(Cl)c2F)c[nH]1 [Example 275, 4-(3,6-Dichloro-2-fluorobenzoyl)-N-(6-((2-(pyrrolidin-1-yl)ethyl)amino)pyridin-3-yl)-1H-pyrrole-2-carboxamide]
IC50 [3]: 107 nM | IC50 [2]: 7.1 nM

O=C(Nc1ccc(NCCN2CCOCC2)nc1)c1cc(C(=O)c2c(Cl)ccc(Cl)c2F)c[nH]1 [Example 276, 4-(3,6-Dichloro-2-fluorobenzoyl)-N-(6-((2-morpholinoethyl)amino)pyridin-3-yl)-1H-pyrrole-2-carboxamide]
IC50 [3]: 125 nM | IC50 [2]: 58.1 nM

CN(C)Cc1ccc(NC(=O)c2cc(C(=O)c3c(Cl)ccc(Cl)c3F)c[nH]2)cn1 [Example 277, 4-(3,6-Dichloro-2-fluorobenzoyl)-N-(6-((dimethylamino)methyl)pyridin-3-yl)-1H-pyrrole-2-carboxamide]
IC50 [3]: 36 nM | IC50 [2]: 22 nM

COCCN(C)Cc1ccc(NC(=O)c2cc(C(=O)c3c(Cl)ccc(Cl)c3F)c[nH]2)cn1 [Example 278]
IC50 [3]: 40 nM | IC50 [2]: 34 nM

O=C(Nc1ccc(CN2CCC(O)CC2)nc1)c1cc(C(=O)c2c(Cl)ccc(Cl)c2F)c[nH]1 [Example 282]
IC50 [3]: 44 nM | IC50 [2]: 6.7 nM

O=C(Nc1ccc(CN2CCCCC2)nc1)c1cc(C(=O)c2c(Cl)ccc(Cl)c2F)c[nH]1 [Example 284, 4-(3,6-Dichloro-2-fluorobenzoyl)-N-(6-(piperidin-1-ylmethyl)pyridin-3-yl)-1H-pyrrole-2-carboxamide]
IC50 [3]: 13 nM | IC50 [2]: 9 nM
